Experimental data as given in PMC11547513, “Design, Synthesis and Biological Activity Evaluation of β-Carboline Derivatives Containing Nitrogen Heterocycles” (Molecules, 2024).
Like-named read-outs stand apart in the source and are kept apart here.

What was measured:
[1] = system: A549 (human lung cancer cell); experiment: MTT assay, in vitro cytotoxicity on A549; conditions: A549, read-out: Inhibitory Activity/% at 10 μM, A549
Excerpt: (§1) Cells were purchased from the Cell Bank of the Chinese Academy of Sciences (Kunming, China).

[2] = system: K562 (human chronic myeloid leukemia cell); experiment: MTT assay, in vitro cytotoxicity on K562; conditions: Homo sapiens, K562, read-out: Inhibitory Activity/% at 10 μM, K562
Excerpt: as §1

[3] = system: Hek-293T (human embryonic kidney cells); experiment: MTT assay, in vitro cytotoxicity on normal Hek-293T; conditions: read-out: Inhibitory Activity/% at 10 μM, Hek-293T
Excerpt: as §1

[4] = system: PC-3 (human prostate cancer cell); experiment: MTT assay, in vitro cytotoxicity on PC-3; conditions: Homo sapiens, 10 μM, average of three replicates, "/" means no anticancer activity
Excerpt: as §1

[5] = system: T47D (human breast cancer cell); experiment: MTT assay, in vitro cytotoxicity on T47D; conditions: read-out: Inhibitory Activity/% at 10 μM, T47D
Excerpt: as §1

[6] = read-out: Inhibitory Activity/% at 10 μM, PC-3, Table 1 (7 series)
[7] = read-out: Inhibitory Activity/% at 10 μM, PC-3, Table 2 (8 series)

Structure (SMILES)	inhibition at 10 µM [1] [%]	inhibition at 10 µM [2] [%]	inhibition at 10 µM [3] [%]	inhibition at 10 µM [4, 6] [%]	inhibition at 10 µM [5] [%]	melting point [°C]	inhibition at 10 µM [4, 7] [%]
O=c1[nH]cc(F)c(=O)[nH]1 [5-Fluorouracil, reference compound]	40.6 ± 2.04						
O=C(CSc1nnc(-c2cc3c(cn2)[nH]c2ccccc23)o1)N1CCN(c2ccc(Cl)c(Cl)c2)CC1 [Compound 7a]	0.72 ± 1.63	0.85 ± 1.01	18.6 ± 0.71	29.58 ± 0.25	32.3 ± 3.36	168.3 to 170.9	
O=C(CSc1nnc(-c2cc3c(cn2)[nH]c2ccccc23)o1)N1CCN(c2ccc(Br)cc2)CC1 [Compound 7b]	13.6 ± 7.88	8.98 ± 3.13	33.3 ± 0.8	29.09 ± 0.27	42.6 ± 1.65	275.4 to 277.7	
O=C(CSc1nnc(-c2cc3c(cn2)[nH]c2ccccc23)o1)N1CCN(c2ccc(O)cc2)CC1 [Compound 7c]	16.8 ± 2.39	18.1 ± 2.63	47.3 ± 4.59	22.7 ± 2.19	40.2 ± 0.9	163.9 to 165.8	
O=C(CSc1nnc(-c2cc3c(cn2)[nH]c2ccccc23)o1)N1CCN(c2ccc(F)cc2)CC1 [Compound 7d]	11.2 ± 0.69	17.8 ± 3.97	36.9 ± 1.74	26.5 ± 5.76	25.4 ± 4.82		
O=C(CSc1nnc(-c2cc3c(cn2)[nH]c2ccccc23)o1)N1CCN(c2ccc(Cl)cc2)CC1 [Compound 7e]	18 ± 2.06	12.7 ± 4.72	26.4 ± 1.35	25 ± 4.06	47.7 ± 3.36	246.4 to 248.3	
COc1ccc(N2CCN(C(=O)CSc3nnc(-c4cc5c(cn4)[nH]c4ccccc45)o3)CC2)cc1 [Compound 7f]	13.5 ± 6.97	21.5 ± 3.02	56.8 ± 2.21	11.5 ± 2.78	42.4 ± 4.23		
O=C(CSc1nnc(-c2cc3c(cn2)[nH]c2ccccc23)o1)N1CCN(c2ncccn2)CC1 [Compound 7g]	< 0	0.05 ± 2.99	34.1 ± 6.8	14.8 ± 2.23	42.5 ± 3.19	212.6 to 213.3	
O=C(CSc1nnc(-c2cc3c(cn2)[nH]c2ccccc23)o1)N1CCN(c2ccc(F)cc2F)CC1 [Compound 7h]	2.16 ± 3.56	8.23 ± 4.12	47.5 ± 0.78	10.7 ± 2.68	46.4 ± 2.12		
O=C(CSc1nnc(-c2cc3c(cn2)[nH]c2ccccc23)o1)N1CCN(c2ccccc2)CC1 [Compound 7i]	5.2 ± 7.21	23.6 ± 3.59	84.14 ± 0.79	35.6 ± 1.89	54.2 ± 3.88	148.9 to 150.6	
COc1cccc(N2CCN(C(=O)CSc3nnc(-c4cc5c(cn4)[nH]c4ccccc45)o3)CC2)c1 [Compound 7j]	34 ± 0.87	13.6 ± 1.21	13.4 ± 0.68	14.7 ± 4.49	39.9 ± 3.5		
O=C(CSc1nnc(-c2cc3c(cn2)[nH]c2ccccc23)o1)Nc1ccc(F)cc1 [Compound 7k]	10.1 ± 6.19	12.2 ± 0.18	30.8 ± 2.59	35.8 ± 4.09	47.5 ± 1.39	296.4 to 297.9	
O=C(CSc1nnc(-c2cc3c(cn2)[nH]c2ccccc23)o1)N1CCOCC1 [Compound 7l]	12.2 ± 6.14	9.28 ± 2.51	11.2 ± 7.91	39.6 ± 5.06	19.3 ± 5.03	228.3 to 229.6	
CS(=O)(=O)N1CCN(C(=O)CSc2nnc(-c3cc4c(cn3)[nH]c3ccccc34)o2)CC1 [Compound 7m]	14.7 ± 3.64	33 ± 1.83	29.5 ± 3.33	20 ± 3.22	25.2 ± 4.1	174.3 to 175.6	
O=C(CSc1nnc(-c2cc3c(cn2)[nH]c2ccccc23)o1)N1CCOc2ccccc21 [Compound 7n]	8.72 ± 2.57	35.1 ± 3.12	61.8 ± 1.57	36 ± 3.68	47.8 ± 0.82	232.4 to 232.8	
O=C(CSc1nnc(-c2cc3c(cn2)[nH]c2ccccc23)o1)N1CCN(C(c2ccc(F)cc2)c2ccc(F)cc2)CC1 [Compound 7o]	< 0	1.26 ± 3.66	35.3 ± 3.81	5.36 ± 3.63	25 ± 1.43		
O=C(CSc1nnc(-c2cc3c(cn2)[nH]c2ccccc23)o1)N1CCN(C2CCCCC2)CC1 [Compound 7p]	17 ± 2.1	8.68 ± 6.83	61.5 ± 3.24	51.2 ± 3.11	50.7 ± 5.79	158.8 to 161.4	
O=C(CSc1nnc(-c2cc3c(cn2)[nH]c2ccccc23)o1)Nc1ccc(CN2CCOCC2)cc1 [Compound 7q]	8.67 ± 0.64	17 ± 1.86	32.3 ± 2.21	29.5 ± 1.38	46.4 ± 2.86		
O=C(CSc1nnc(-c2cc3c(cn2)[nH]c2ccccc23)o1)N1CCN(c2ccc(C(F)(F)F)cn2)CC1 [Compound 7r]	3.03 ± 5.83	17.2 ± 2.35	0.74 ± 3.77	44 ± 2.62	38.4 ± 5.85	300.7 to 302.9	
COc1cc(-c2nc(-c3nnc(SCC(=O)N4CCN(c5ccc(Cl)c(Cl)c5)CC4)o3)cc3c2[nH]c2ccccc23)cc(OC)c1OC [Compound 8a]	7.02 ± 4.02	21 ± 1.65	29.4 ± 2.16		7.49 ± 3.25		7.73 ± 1.33
COc1cc(-c2nc(-c3nnc(SCC(=O)N4CCN(c5ccc(Cl)cc5)CC4)o3)cc3c2[nH]c2ccccc23)cc(OC)c1OC [Compound 8e]	26.8 ± 2.6	54.4 ± 2.32	23.4 ± 3.77		< 0		26.9 ± 4.39
COc1cc(-c2nc(-c3nnc(SCC(=O)N4CCN(c5ccccc5)CC4)o3)cc3c2[nH]c2ccccc23)cc(OC)c1OC [Compound 8i]	18.4 ± 1.8	25.5 ± 2.72	25.6 ± 3.44		0.56 ± 3.38		21.3 ± 4.8
COc1cccc(N2CCN(C(=O)CSc3nnc(-c4cc5c([nH]c6ccccc65)c(-c5cc(OC)c(OC)c(OC)c5)n4)o3)CC2)c1 [Compound 8j]	0.13 ± 4.62	25 ± 3.95	20.4 ± 1.51		< 0		15.7 ± 3.93
COc1cc(-c2nc(-c3nnc(SCC(=O)N4CCN(S(C)(=O)=O)CC4)o3)cc3c2[nH]c2ccccc23)cc(OC)c1OC [Compound 8m]	2.7 ± 1.78	30.2 ± 2.16	21 ± 2.61		< 0		46.58 ± 0.35
COc1cc(-c2nc(-c3nnc(SCC(=O)N4CCN(C5CCCCC5)CC4)o3)cc3c2[nH]c2ccccc23)cc(OC)c1OC [Compound 8p]	8.84 ± 0.36	44.6 ± 4.1	28.9 ± 3.22		54.2 ± 4.87		19.1 ± 2.79
